# Assays:
# PTP1B (GST-PTP1B) = biological target: T1, PTP1B (GST-PTP1B) (Homo sapiens, UniProt P18031); assay: PTP1B inhibition, colorimetric pNPP assay; type: biochemical; details: for inhibition at 20 µg/mL: PTP1B, compound at 20 μg/mL; for inhibition at 20 µg/mL / IC50: pNPP substrate; for IC50: means ± SD of three replications, OA/PC = oleanolic acid positive control; for PTP1B inhibitory activity (in words): pNPP assay, tested at 20 μg/mL
# T1 sequence (P18031 1-435): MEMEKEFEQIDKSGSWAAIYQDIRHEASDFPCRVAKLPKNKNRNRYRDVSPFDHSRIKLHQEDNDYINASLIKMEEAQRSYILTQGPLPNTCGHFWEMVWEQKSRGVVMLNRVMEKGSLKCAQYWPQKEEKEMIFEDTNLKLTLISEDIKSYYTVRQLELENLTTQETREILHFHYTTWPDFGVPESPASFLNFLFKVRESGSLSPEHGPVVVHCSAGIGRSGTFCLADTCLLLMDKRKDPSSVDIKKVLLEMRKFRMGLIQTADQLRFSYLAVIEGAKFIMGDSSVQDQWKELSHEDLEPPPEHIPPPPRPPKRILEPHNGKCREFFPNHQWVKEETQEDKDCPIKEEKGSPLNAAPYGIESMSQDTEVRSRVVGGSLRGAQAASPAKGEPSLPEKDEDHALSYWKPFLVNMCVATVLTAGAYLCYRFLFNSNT
inhibition at 20 µg/mL (PTP1B (GST-PTP1B)),melting point,IC50 (PTP1B (GST-PTP1B)),PTP1B inhibitory activity (in words) (PTP1B (GST-PTP1B)),SMILES
7.18%,–,–,–,"Oc1ccc(C2Nc3cccc4cccc(c34)N2)cc1 [Compound 5, 4-(2,3-Dihydro-1H-perimidin-2-yl)phenol]"
15.3%,–,–,–,COC(=O)c1ccc(C2Nc3cccc4cccc(c34)N2)cc1 [Compound 9]
6.83%,128.6 to 132.5 °C,–,–,"CCOC(=O)CCCNC(=O)c1ccc(C2Nc3cccc4cccc(c34)N2)cc1 [Compound 12, Ethyl 4-(4-(2,3-dihydro-1H-perimidin-2-yl)benzamido)butanoate]"
28.5%,141.8 to 143.1 °C,–,–,"CCOC(=O)CCCCNC(=O)c1ccc(C2Nc3cccc4cccc(c34)N2)cc1 [Compound 13, Ethyl 5-(4-(2,3-dihydro-1H-perimidin-2-yl)benzamido)pentanoate]"
90%,85.4 to 90.3 °C,27.8 ± 5.45 µM,–,O=C(O)CNC(=O)c1ccc(C2Nc3cccc4cccc(c34)N2)cc1 [Compound 16]
73.1%,99.7 to 103.3 °C,22.2 ± 1.6 µM,–,"O=C(O)CCCNC(=O)c1ccc(C2Nc3cccc4cccc(c34)N2)cc1 [Compound 17, 4-(4-(2,3-Dihydro-1H-perimidin-2-yl)benzamido)butanoic acid]"
94.8%,102.8 to 107.4 °C,5.53 ± 0.54 µM,–,"O=C(O)CCCCNC(=O)c1ccc(C2Nc3cccc4cccc(c34)N2)cc1 [Compound 18, 5-(4-(2,3-Dihydro-1H-perimidin-2-yl)benzamido)pentanoic acid]"
95.3%,90.8 to 91.9 °C,7.82 ± 0.27 µM,–,"O=C(O)CCCCCNC(=O)c1ccc(C2Nc3cccc4cccc(c34)N2)cc1 [Compound 19, 6-(4-(2,3-Dihydro-1H-perimidin-2-yl)benzamido)hexanoic acid]"
7.45%,76.2 to 78.6 °C,–,did not show inhibitory activity,CCOC(=O)CCCOc1ccc(C2Nc3cccc4cccc(c34)N2)cc1 [Compound 21]
2.04%,93.8 to 96.4 °C,–,did not show inhibitory activity,"CCOC(=O)CCCCOc1ccc(C2Nc3cccc4cccc(c34)N2)cc1 [Compound 22, Ethyl 5-[4-(2,3-dihydro-1H-perimidin-2-yl)phenoxy]pentanoate]"
98.4%,> 265 °C,5.88 ± 0.25 µM,–,"O=C(O)COc1ccc(C2Nc3cccc4cccc(c34)N2)cc1 [Compound 23, 2-[4-(2,3-Dihydro-1H-perimidin-2-yl)phenoxy]acetic acid]"
10.5%,126.3 to 130.9 °C,–,no inhibitory activity,O=C(O)CCCOc1ccc(C2Nc3cccc4cccc(c34)N2)cc1 [Compound 24]
32.1%,165.9 to 167.8 °C,–,no inhibitory activity,"O=C(O)CCCCOc1ccc(C2Nc3cccc4cccc(c34)N2)cc1 [Compound 25, 5-[4-(2,3-Dihydro-1H-perimidin-2-yl)phenoxy]pentanoic acid]"
2.92%,139.9 to 142.5 °C,–,–,"CCOC(=O)CCCC(=O)Nc1ccc(C2Nc3cccc4cccc(c34)N2)cc1 [Compound 29, Ethyl 5-{[4-(2,3-dihydro-1H-perimidin-2-yl]phenyl)amino}-5-oxopentanoate]"
0.51%,> 265 °C,–,no activity,"O=C(O)C(=O)Nc1ccc(C2Nc3cccc4cccc(c34)N2)cc1 [Compound 30, 2-{[4-(2,3-Dihydro-1H-perimidin-2-yl)phenyl]amino}-2-oxoacetic acid]"
96.8%,221.3 to 223.4 °C,6.45 ± 0.42 µM,–,"O=C(O)CC(=O)Nc1ccc(C2Nc3cccc4cccc(c34)N2)cc1 [Compound 31, 3-{[4-(2,3-Dihydro-1H-perimidin-2-yl)phenyl]amino}-3-oxopropanoic acid]"
29.9%,–,–,no activity,O=C(O)CCC(=O)Nc1ccc(C2Nc3cccc4cccc(c34)N2)cc1 [Compound 32]
95.1%,> 265 °C,6.91 ± 1.17 µM,–,"O=C(O)CCCC(=O)Nc1ccc(C2Nc3cccc4cccc(c34)N2)cc1 [Compound 33, 5-{[4-(2,3-Dihydro-1H-perimidin-2-yl)phenyl]amino}-5-oxopentanoic acid]"
0.29%,239.7 to 241.2 °C,–,no inhibitory activity,NCCC(=O)Nc1ccc(C2Nc3cccc4cccc(c34)N2)cc1 [Compound 35]

# More lines, now with the values behind:
SMILES,inhibition at 20 µg/mL (PTP1B (GST-PTP1B)),melting point,IC50 (PTP1B (GST-PTP1B)),PTP1B inhibitory activity (in words) (PTP1B (GST-PTP1B))
Brc1ccc(C2Nc3cccc4cccc(c34)N2)cc1 [Compound 2],37%,–,–,–
"Brc1cccc(C2Nc3cccc4cccc(c34)N2)c1 [Compound 3, 2-(3-Bromophenyl)-2,3-dihydro-1H-perimidine]",42.5%,161.7 to 163.3 °C,–,–
"Brc1ccccc1C1Nc2cccc3cccc(c23)N1 [Compound 4, 2-(2-Bromophenyl)-2,3-dihydro-1H-perimidine]",17.5%,–,–,–
"N#Cc1cc(C2Nc3cccc4cccc(c34)N2)ccc1F [Compound 6, 5-(2,3-Dihydro-1H-perimidin-2-yl)-2-fluorobenzonitrile]",31.6%,204.4 to 208.4 °C,–,–
Nc1ccc(C2Nc3cccc4cccc(c34)N2)cc1 [Compound 8],23.8%,166.4 to 171.9 °C,–,–
"COC(=O)C1CCCN1C(=O)c1ccc(C2Nc3cccc4cccc(c34)N2)cc1 (stereo not shown) [Compound 10, Methyl 1-(4-(2,3-dihydro-1H-perimidin-2-yl)benzoyl)pyrrolidine-2-carboxylate]",26.2%,171.3 to 176 °C,–,–
COC(=O)CNC(=O)c1ccc(C2Nc3cccc4cccc(c34)N2)cc1 [Compound 11],4.81%,193.3 to 198.7 °C,–,–
"CCOC(=O)CCCCCNC(=O)c1ccc(C2Nc3cccc4cccc(c34)N2)cc1 [Compound 14, Ethyl 6-(4-(2,3-dihydro-1H-perimidin-2-yl)benzamido)hexanoate]",35.6%,145.8 to 147.4 °C,–,–
"O=C(O)C1CCCN1C(=O)c1ccc(C2Nc3cccc4cccc(c34)N2)cc1 (stereo not shown) [Compound 15, 1-(4-(2,3-Dihydro-1H-perimidin-2-yl)benzoyl)pyrrolidine-2-carboxylic acid]",84.2%,233.1 to 234.3 °C,20.2 ± 1.94 µM,–
"CCOC(=O)C(=O)Nc1ccc(C2Nc3cccc4cccc(c34)N2)cc1 [Compound 26, Ethyl 2-{[4-(2,3-dihydro-1H-perimidin-2-yl)phenyl]amino}-2-oxoacetate]",91.8%,132.3 to 135.5 °C,1.27 ± 0.06 µM,–
"CCOC(=O)CC(=O)Nc1ccc(C2Nc3cccc4cccc(c34)N2)cc1 [Compound 27, Ethyl 3-{[4-(2,3-dihydro-1H-perimidin-2-yl)phenyl]amino}-3-oxopropanoate]",1.68%,158.2 to 160.7 °C,–,–
CCOC(=O)CCC(=O)Nc1ccc(C2Nc3cccc4cccc(c34)N2)cc1 [Compound 28],29.7%,165.8 to 170.9 °C,–,–
CC(C)(C)OC(=O)NCCC(=O)Nc1ccc(C2Nc3cccc4cccc(c34)N2)cc1 [Compound 34],12.6%,111.1 to 113.7 °C,–,no inhibitory activity
COC(=O)c1ccc(C2Nc3cccc4cccc(c34)N2)nc1 [Compound 40],6.4%,–,–,–
O=C(O)c1ccc(C2Nc3cccc4cccc(c34)N2)nc1 [Compound 41],96.6%,100.7 to 101.3 °C,10.8 ± 0.69 µM,–
COC(=O)CNC(=O)c1ccc(C2Nc3cccc4cccc(c34)N2)nc1 [Compound 42],42.1%,183.6 to 184.7 °C,–,–
"COC(=O)CCCNC(=O)c1ccc(C2Nc3cccc4cccc(c34)N2)nc1 [Compound 43, Methyl 4-[6-(2,3-dihydro-1H-perimidin-2-yl)nicotinamido]butanoate]",4.67%,100.1 to 105.4 °C,–,–
"CCOC(=O)CCCCNC(=O)c1ccc(C2Nc3cccc4cccc(c34)N2)nc1 [Compound 44, Ethyl 5-[6-(2,3-dihydro-1H-perimidin-2-yl)nicotinamido]pentanoate]",4.74%,109.4 to 113.5 °C,–,–
"CCOC(=O)CCCCCNC(=O)c1ccc(C2Nc3cccc4cccc(c34)N2)nc1 [Compound 45, Ethyl 6-[6-(2,3-dihydro-1H-perimidin-2-yl)nicotinamido]hexanoate]",10.8%,119.3 to 123.8 °C,–,–
"O=C(O)CCCNC(=O)c1ccc(C2Nc3cccc4cccc(c34)N2)nc1 [Compound 47, 4-[6-(2,3-Dihydro-1H-perimidin-2-yl)nicotinamido]butanoic acid]",98.5%,95.3 to 99 °C,15.2 ± 1.41 µM,–
"O=C(O)CCCCNC(=O)c1ccc(C2Nc3cccc4cccc(c34)N2)nc1 [Compound 48, 5-[6-(2,3-Dihydro-1H-perimidin-2-yl)nicotinamido]pentanoic acid]",91.5%,117.1 to 120.3 °C,3.56 ± 0.13 µM,–
